Broadly, the pIC50 is the negative decadic logarithm of the IC50, by convention in mol/L. What is called inhibition is the change of the read-out against control, counted positive when it falls. The term pKi denotes the negative decadic logarithm of the Ki, by convention in mol/L. Read a low pKi as a high Ki.

Assay [1] addresses Leucine-rich repeat serine/threonine-protein kinase 2 (Homo sapiens, UniProt Q5S007). The experiment in a line: Inhibition of recombinant human GST-tagged LRRK2 (970 to 2527 residues) expressed in baculovirus expression system using LRRKtide as substrate incubated for 60 mins by Adapta assay.
Assay [2] deals with Angiopoietin-1 receptor (Homo sapiens) (UniProt Q02763). Kind of assay: Inhibition of recombinant human GST-tagged TIE2 (817 to 1101 residues) expressed in baculovirus expression system using […] as substrate at 0.1 uM incubated for 60 mins by Z'-Lyte assay relative to control.
For assay [3], the target named is T1, cGMP-dependent protein kinase 2 (Homo sapiens) (UniProt Q13237).
T1 sequence (whole entry): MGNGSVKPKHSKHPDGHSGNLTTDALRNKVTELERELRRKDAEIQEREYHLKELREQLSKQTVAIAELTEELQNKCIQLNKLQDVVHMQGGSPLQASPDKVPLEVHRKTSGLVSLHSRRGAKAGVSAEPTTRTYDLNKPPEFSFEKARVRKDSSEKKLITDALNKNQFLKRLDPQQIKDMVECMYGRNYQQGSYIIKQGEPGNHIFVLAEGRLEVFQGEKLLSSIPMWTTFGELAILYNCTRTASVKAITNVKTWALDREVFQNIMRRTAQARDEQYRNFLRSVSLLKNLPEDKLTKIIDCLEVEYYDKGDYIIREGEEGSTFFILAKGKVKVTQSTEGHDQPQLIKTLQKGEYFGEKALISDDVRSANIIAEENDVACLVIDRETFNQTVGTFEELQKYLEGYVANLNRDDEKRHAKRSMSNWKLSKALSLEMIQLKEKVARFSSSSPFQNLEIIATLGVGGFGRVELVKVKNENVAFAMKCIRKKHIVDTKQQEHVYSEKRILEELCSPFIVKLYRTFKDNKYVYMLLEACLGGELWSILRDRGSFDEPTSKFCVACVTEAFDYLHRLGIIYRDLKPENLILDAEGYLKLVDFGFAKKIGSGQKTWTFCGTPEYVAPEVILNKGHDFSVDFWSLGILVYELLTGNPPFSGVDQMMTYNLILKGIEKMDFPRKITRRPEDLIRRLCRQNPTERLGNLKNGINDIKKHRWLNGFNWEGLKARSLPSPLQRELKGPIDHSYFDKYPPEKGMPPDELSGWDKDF
The experiment in a line: Inhibition of recombinant human GST-tagged full length PKG2 expressed in baculovirus expression system using Ser/Thr 01 as substrate at 0.1 uM incubated for 60 mins by Z'-Lyte assay relative to control.

Assay [4] addresses T2, Inhibitor of nuclear factor kappa-B kinase subunit beta (Homo sapiens) (UniProt O14920).
T2 sequence (whole entry): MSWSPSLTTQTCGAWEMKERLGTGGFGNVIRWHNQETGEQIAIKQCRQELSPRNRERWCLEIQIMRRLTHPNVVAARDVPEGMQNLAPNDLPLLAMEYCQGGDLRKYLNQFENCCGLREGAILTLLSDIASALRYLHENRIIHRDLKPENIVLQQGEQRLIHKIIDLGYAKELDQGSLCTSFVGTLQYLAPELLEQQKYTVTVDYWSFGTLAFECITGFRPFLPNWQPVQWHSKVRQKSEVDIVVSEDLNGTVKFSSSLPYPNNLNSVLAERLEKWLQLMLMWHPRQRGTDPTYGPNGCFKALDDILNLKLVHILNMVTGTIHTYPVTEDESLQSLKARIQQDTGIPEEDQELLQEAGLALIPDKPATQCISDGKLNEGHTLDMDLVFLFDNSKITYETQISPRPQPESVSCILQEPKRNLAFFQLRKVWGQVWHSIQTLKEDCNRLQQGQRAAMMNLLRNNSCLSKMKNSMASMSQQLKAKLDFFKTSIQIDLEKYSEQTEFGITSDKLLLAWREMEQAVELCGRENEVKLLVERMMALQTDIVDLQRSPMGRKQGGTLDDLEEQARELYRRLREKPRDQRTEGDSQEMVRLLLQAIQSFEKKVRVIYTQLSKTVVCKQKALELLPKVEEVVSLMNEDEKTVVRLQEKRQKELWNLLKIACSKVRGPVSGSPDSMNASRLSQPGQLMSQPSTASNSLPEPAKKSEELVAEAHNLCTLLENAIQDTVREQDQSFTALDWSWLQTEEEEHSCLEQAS
Kind of assay: Inhibition of recombinant human GST-tagged full length IKKbeta expressed in baculovirus expression system using Ser/Thr 05 as substrate at 0.1 uM incubated for 60 mins by Z'-Lyte assay relative to control.

Assay [5] has as its target T3, Tyrosine-protein kinase JAK2 (Homo sapiens, UniProt O60674).
Description: Inhibition of recombinant human JAK2 (812 to 1132 residues) expressed in insect cells using Y1-B as substrate incubated for 30 mins by microfluidic mobility shift assay
Assay [6] addresses Tyrosine-protein kinase JAK1 (Homo sapiens, UniProt P23458). Kind of assay: biochemical.
Description: Inhibition of recombinant human JAK1 (854 to 1154 residues) expressed in insect cells using Y1-B as substrate incubated for 30 mins by microfluidic mobility shift assay
In assay [7] the target is T3, Tyrosine-protein kinase JAK2. Kind of assay: Inhibition of recombinant human GST-tagged JAK2 (809 to 1153 residues) expressed in baculovirus expression system using Tyr 06 as substrate at 0.1 uM incubated for 60 mins by Z'-lyte assay relative to control.
Assay [8] deals with Tyrosine-protein kinase receptor UFO (Homo sapiens) (UniProt P30530). The experiment in a line: Inhibition of recombinant human GST-tagged full length AXL expressed in insect expression system using Tyr 06 as substrate at 0.1 uM incubated for 60 mins by Z'-Lyte assay relative to control.
The target of assay [9] is Serine/threonine-protein kinase Sgk1 (Homo sapiens) (UniProt O00141). The experiment in a line: Inhibition of recombinant human GST-tagged […] SGK1 (60 to 431 residues) expressed in baculovirus expression system using Ser/Thr 06 as substrate at 0.1 uM incubated for 60 mins by Z'-Lyte assay relative to control.
In assay [10] the target is Inhibitor of nuclear factor kappa-B kinase subunit alpha (Homo sapiens) (UniProt O15111). Kind of assay: Inhibition of recombinant human His-tagged full length IKKalpha expressed in baculovirus expression system at 0.1 uM incubated for 60 mins by Adapta assay relative to control.

pIC50, pKi: −log10 of the molar value.

T3 sequence (O60674 whole entry): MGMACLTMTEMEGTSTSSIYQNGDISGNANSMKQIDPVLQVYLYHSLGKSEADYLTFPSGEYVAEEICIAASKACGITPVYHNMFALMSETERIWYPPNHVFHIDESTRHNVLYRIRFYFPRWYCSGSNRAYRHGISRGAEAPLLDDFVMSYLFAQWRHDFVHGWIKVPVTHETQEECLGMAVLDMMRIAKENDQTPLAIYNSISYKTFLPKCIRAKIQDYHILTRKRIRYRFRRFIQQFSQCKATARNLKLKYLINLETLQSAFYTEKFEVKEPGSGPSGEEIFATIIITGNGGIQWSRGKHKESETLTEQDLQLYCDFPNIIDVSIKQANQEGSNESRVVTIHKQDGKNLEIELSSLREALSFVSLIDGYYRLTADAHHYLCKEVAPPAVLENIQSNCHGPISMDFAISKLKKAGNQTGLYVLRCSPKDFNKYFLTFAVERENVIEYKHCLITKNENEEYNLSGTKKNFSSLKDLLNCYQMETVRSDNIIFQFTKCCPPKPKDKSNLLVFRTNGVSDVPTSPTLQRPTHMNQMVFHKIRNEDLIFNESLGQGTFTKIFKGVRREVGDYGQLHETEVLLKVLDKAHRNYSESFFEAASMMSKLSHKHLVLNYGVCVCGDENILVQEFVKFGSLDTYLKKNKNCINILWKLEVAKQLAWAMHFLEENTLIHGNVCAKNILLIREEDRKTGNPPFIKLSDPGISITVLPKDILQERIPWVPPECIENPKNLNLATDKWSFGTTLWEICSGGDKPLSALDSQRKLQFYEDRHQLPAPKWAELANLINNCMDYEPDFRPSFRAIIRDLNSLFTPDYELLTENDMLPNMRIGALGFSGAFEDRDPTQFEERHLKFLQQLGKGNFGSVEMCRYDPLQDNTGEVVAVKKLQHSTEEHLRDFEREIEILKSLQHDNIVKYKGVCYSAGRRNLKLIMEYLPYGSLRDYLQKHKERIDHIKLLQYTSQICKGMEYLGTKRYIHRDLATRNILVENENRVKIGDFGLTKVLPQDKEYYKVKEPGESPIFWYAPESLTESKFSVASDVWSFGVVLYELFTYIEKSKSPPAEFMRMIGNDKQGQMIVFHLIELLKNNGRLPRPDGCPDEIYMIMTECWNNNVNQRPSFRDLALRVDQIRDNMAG
Sequence of Leucine-rich repeat serine/threonine-protein kinase 2 (Q5S007 whole entry, the tested form may be a part): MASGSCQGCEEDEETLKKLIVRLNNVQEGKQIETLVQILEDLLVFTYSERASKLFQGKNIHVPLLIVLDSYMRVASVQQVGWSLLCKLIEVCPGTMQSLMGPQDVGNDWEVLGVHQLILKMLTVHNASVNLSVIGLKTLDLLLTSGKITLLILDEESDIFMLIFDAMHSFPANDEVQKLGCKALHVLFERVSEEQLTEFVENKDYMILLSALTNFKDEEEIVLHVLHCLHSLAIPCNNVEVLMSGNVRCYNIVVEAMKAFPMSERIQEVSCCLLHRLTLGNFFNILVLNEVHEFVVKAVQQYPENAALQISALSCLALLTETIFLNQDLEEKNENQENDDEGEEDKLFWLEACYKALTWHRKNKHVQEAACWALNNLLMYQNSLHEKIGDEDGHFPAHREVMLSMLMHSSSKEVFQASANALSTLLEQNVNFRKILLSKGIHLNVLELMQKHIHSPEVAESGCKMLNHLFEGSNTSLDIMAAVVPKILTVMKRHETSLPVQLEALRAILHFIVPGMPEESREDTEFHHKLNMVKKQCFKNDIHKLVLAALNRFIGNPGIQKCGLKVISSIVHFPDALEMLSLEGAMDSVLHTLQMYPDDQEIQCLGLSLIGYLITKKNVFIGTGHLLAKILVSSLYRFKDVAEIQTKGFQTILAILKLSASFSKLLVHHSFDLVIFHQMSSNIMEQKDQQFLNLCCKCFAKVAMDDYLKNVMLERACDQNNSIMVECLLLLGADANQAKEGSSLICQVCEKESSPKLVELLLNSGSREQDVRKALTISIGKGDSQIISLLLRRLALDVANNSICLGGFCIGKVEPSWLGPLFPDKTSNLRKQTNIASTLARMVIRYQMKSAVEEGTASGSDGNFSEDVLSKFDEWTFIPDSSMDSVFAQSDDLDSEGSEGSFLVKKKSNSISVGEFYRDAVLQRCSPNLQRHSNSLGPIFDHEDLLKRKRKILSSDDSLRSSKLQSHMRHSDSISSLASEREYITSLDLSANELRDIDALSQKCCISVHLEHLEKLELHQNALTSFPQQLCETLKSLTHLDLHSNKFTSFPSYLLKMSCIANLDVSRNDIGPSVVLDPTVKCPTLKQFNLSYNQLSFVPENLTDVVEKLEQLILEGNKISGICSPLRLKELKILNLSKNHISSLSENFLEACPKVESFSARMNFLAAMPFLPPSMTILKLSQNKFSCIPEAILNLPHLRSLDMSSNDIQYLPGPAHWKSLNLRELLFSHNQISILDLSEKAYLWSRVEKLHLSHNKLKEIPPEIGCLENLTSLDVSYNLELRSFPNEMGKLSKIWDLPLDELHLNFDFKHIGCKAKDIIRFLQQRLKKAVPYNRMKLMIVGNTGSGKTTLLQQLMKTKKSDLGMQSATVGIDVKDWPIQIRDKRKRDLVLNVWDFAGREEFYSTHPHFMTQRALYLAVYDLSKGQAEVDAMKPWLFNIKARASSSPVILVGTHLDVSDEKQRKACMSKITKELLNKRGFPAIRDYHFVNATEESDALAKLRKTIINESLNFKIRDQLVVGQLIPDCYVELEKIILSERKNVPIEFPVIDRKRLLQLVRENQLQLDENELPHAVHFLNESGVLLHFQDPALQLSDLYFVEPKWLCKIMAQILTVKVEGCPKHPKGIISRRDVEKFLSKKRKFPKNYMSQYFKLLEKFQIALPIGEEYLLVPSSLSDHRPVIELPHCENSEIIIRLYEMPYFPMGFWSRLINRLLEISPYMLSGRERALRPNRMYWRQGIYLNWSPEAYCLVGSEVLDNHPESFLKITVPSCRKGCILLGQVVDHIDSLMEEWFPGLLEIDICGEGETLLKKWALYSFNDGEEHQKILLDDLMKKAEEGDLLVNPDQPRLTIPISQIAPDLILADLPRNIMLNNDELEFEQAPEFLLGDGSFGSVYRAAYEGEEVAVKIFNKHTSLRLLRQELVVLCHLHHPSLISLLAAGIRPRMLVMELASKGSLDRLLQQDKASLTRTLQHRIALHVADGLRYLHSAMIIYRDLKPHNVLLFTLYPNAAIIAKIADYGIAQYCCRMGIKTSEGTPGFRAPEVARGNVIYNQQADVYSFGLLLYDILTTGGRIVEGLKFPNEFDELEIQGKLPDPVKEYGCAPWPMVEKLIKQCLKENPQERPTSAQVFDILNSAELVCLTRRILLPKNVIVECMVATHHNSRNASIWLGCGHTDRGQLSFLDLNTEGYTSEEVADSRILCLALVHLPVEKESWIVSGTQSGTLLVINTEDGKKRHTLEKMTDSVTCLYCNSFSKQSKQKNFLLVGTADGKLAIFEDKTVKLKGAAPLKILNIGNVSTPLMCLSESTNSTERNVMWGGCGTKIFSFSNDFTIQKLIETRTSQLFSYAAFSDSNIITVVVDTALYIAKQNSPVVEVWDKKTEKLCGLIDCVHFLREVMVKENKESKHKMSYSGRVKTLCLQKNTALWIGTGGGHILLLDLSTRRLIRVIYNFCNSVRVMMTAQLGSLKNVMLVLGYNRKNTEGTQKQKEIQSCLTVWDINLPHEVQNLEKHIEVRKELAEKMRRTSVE
Sequence of Tyrosine-protein kinase JAK1 (P23458 whole entry, the tested form may be a part): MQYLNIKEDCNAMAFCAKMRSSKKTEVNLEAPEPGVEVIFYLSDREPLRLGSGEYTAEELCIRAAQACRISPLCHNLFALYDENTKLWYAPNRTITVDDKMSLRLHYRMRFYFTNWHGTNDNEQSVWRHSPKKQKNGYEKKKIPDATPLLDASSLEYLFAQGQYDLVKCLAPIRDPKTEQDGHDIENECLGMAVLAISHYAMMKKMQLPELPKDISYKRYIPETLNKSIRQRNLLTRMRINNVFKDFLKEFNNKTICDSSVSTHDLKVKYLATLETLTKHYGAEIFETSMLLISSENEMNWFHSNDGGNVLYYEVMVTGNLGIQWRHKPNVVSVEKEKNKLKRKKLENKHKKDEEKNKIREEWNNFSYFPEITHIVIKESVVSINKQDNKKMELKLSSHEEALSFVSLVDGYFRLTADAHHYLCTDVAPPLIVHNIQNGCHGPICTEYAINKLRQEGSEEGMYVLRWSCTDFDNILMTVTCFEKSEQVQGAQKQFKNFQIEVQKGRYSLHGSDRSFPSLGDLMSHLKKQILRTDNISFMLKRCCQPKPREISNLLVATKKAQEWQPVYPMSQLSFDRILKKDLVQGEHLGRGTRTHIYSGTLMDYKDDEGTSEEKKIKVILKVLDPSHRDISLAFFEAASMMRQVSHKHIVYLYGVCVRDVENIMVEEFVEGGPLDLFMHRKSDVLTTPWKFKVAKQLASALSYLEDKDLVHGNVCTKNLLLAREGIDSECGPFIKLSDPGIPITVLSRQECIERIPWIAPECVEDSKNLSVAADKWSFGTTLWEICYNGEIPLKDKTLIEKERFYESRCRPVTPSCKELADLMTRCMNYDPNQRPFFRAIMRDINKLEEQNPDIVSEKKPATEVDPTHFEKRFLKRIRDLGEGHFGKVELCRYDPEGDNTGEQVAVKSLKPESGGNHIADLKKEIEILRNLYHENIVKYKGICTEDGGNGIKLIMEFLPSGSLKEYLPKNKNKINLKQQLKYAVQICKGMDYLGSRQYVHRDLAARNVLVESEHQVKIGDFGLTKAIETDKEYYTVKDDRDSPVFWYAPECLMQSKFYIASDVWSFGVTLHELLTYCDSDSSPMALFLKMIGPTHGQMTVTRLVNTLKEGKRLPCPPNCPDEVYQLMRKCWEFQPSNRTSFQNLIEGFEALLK

As to `O=C(Nc1c[nH]nc1-c1cc(Cl)ccc1OC(F)F)c1cnn2cccnc12`, the pIC50 in assay [1] was 7.74. Besides, the figures for the inhibition in [2], in [3] and in [4] were 12%, 2% and 2%, respectively. In addition, the pKi in [5] was 10.15; in assay [6], 9.68.

Turning to `Cn1cc(NC(=O)c2cnn3cccnc23)c(-c2cc(Cl)ccc2OC(F)F)n1`, the inhibition in assay [7] was found to be 98%; in assay [2], 3%; in assay [3], 6%; in [4] it was 5%; in assay [8], 5%; in assay [9] it was 7%. In addition, the inhibition in assay [10] is -3%. Moreover, the results for the pKi in assay [5] and in assay [6] were 10.06 and 9.68, respectively.

Take `O=C(Nc1c[nH]nc1-c1cc2ccccc2cc1OC(F)F)c1cnn2cccnc12`: the pIC50 in assay [1] is 6.74. Besides, the inhibition in [7] is 97%; in [3], 6%; in [4], -3%; in assay [8], 0%; in [9] it was -4%; in assay [10], 6%.

The values are drawn from ChEMBL document CHEMBL4665643 (Bioorg Med Chem Lett, 2019).
